From patent publication US10729741B2, “Methods of treating burns with i.v. cP12 in a window from 2 to 6 hours after injury” (NeoMatrix Therapeutics Inc., priority 2017, dated 2020)
Where two headings read alike, the source gives them in different places. Residues, ends and D or L forms follow the SMILES beside them.

Key:
porcine burns = test: porcine vertical injury progression burn model, wound closure by H&E histology; format: in vivo, pig; settings: for percent wounds closed (100% re-epithelialization) at 14 d post-burn: compiled data
Description: For a pathobiology proof-of-principle study we used a validated porcine vertical injury progression burn model (Singer A J, Hirth D, McClain S A, Crawford L, Lin F, and Clark R A. Validation of a vertical progression porcine burn model. J Burn Care Res. 2011; 32(6):638-46). In short, while under general anaesthesia, twenty burns were created on the dorsal skin of four outbred female Yorkshire pigs (˜25 kg) using a 2.5×2.5×7.5 cm, 150 gram aluminum bar equilibrated in an 80° C. water bath and applied for 20 s. The application of the 80° C. aluminum bar caused burn injury a little beyond mid-dermis but often progressed to full-thickness within 3-7 days. All burns were treated with petrolatum, and protected with Tegaderm. In some pigs, a fibronectin (FN)-derived peptide (P12) (SEQ ID NO:1) was infused over 30 min at 1, 2, and 4 h post-burn using doses of 0.003, 0.01 or 0.03 mg/kg. The infused P12 peptide (SEQ ID NO:1) was cyclized (cP12) (SEQ ID NO:2) to prevent exopeptidase digestion from amino- and carboxy-peptidases, which are common in the blood and skin.
Tissue specimens taken at 14 days after a 30 min infusion of cP12 (SEQ ID NO:2) doses at 0.003, 0.01, 0.03 or 0.1 mg/kg, where infusions began at 1, 4, 8, 12 and 24 h post-burn, have been fixed, stained with hematoxylin and eosin (H&E), and determined whether the surface of the wound was 100% re-epithelialized, i.e. wound closure obtained. The percent wounds totally re-epithelialized at each cP12 (SEQ ID NO:2) dose and each post-burn time of onset of a 30 min infusion are recorded in Table 1. The number of pigs used for each dose and time is denoted in Table 1 by parentheses. Each pig while under general anesthesia had 20 burn wounds administered on the back by a 2.5×2.5 aluminum bar heated to 80° C. and applied to the skin for 20 sec.
The effect of cP12 (SEQ ID NO:2) doses at 0.003, 0.01, 0.03 or 0.1 mg/kg at 4 h post-burn 30 min-infusion on percent wounds closed at 14d post-burn the 5 experiments performed under these conditions are shown in Table 2. The dates indicate the onset on each experiment, i.e. the date the pigs receive burns.

[1] = anaphylactoid response with 30 min infusion in pig models; format: in vivo
Description: Depending on the animal type, cP12 (SEQ ID NO:2) (or linear P12. SEQ ID NO:1) can induce an anaphylactoid response at 2.5 to 10 mg/kg given as an iv bolus or even a rapid infusion. This reaction is less likely with a slower infusion.

burn injury [2] = settings: cited from earlier work
mesenchymal cell = settings: in solution; intrinsically and synergistically with growth factors, especially PDGF-BB; cited from earlier work
burn injury [3] = settings: rat burn model; cited from earlier work
[4] = test system: adult human dermal fibroblasts (AHDF); settings: oxidative and cytokine stress and/or nutrient withdrawal, in the presence of PDGF-BB; cited from earlier work

## CC[C@H](C)[C@@H]1NC(=O)[C@H](Cc2ccc(O)cc2)NC(=O)[C@H](CCCCN)NC(=O)[C@H](CO)NC(=O)[C@H]([C@@H](C)CC)NC(=O)[C@H](Cc2c[nH]cn2)NC(=O)[C@H](CO)NC(=O)[C@@H]2CCCN2C(=O)[C@H](CCCCN)NC(=O)[C@@H]2CCCN2C(=O)[C@H](CCCNC(=N)N)NC(=O)[C@H](Cc2c[nH]c3ccccc23)NC(=O)[C@H](CCCNC(=N)N)NC(=O)[C@H](CC(C)C)NC1=O [cP12] (HELM PEPTIDE1{H.I.S.K.Y.I.L.R.W.R.P.K.P.S}$PEPTIDE1,PEPTIDE1,1:R1-14:R2$$$V2.0)
Porcine burns; 0.003 mg/kg, 30 min i.v. infusion begun 1 h post-burn
  percent wounds closed (100% re-epithelialization) at 14 d post-burn: 17 (5) percent
Porcine burns; 0.003 mg/kg, 30 min i.v. infusion begun 4 h post-burn
  percent wounds closed (100% re-epithelialization) at 14 d post-burn: 37 (3) percent
Porcine burns; 0.01 mg/kg, 30 min i.v. infusion begun 1 h post-burn
  percent wounds closed (100% re-epithelialization) at 14 d post-burn: 28 (8) percent
Porcine burns; 0.01 mg/kg, 30 min i.v. infusion begun 4 h post-burn
  percent wounds closed (100% re-epithelialization) at 14 d post-burn: 65 (5) percent
Porcine burns; 0.01 mg/kg, 30 min i.v. infusion begun 8 h post-burn
  percent wounds closed (100% re-epithelialization) at 14 d post-burn: 34 (5) percent
Porcine burns; 0.01 mg/kg, 30 min i.v. infusion begun 12 h post-burn
  percent wounds closed (100% re-epithelialization) at 14 d post-burn: 40 (3) percent
Porcine burns; 0.01 mg/kg, 30 min i.v. infusion begun 24 h post-burn
  percent wounds closed (100% re-epithelialization) at 14 d post-burn: 40 (3) percent
Porcine burns; 0.03 mg/kg, 30 min i.v. infusion begun 1 h post-burn
  percent wounds closed (100% re-epithelialization) at 14 d post-burn: 8 (8) percent
Porcine burns; 0.03 mg/kg, 30 min i.v. infusion begun 4 h post-burn
  percent wounds closed (100% re-epithelialization) at 14 d post-burn: 25 (3) percent
Porcine burns; 0.1 mg/kg, 30 min i.v. infusion begun 1 h post-burn
  percent wounds closed (100% re-epithelialization) at 14 d post-burn: 25 (5) percent
Porcine burns; 0.1 mg/kg, 30 min i.v. infusion begun 4 h post-burn
  percent wounds closed (100% re-epithelialization) at 14 d post-burn: 50 (2) percent
Porcine burns; 0.1 mg/kg, 30 min i.v. infusion begun 8 h post-burn
  percent wounds closed (100% re-epithelialization) at 14 d post-burn: 28 (5) percent
Porcine burns; 0.1 mg/kg, 30 min i.v. infusion begun 12 h post-burn
  percent wounds closed (100% re-epithelialization) at 14 d post-burn: 25 (3) percent
Porcine burns; 0.1 mg/kg, 30 min i.v. infusion begun 24 h post-burn
  percent wounds closed (100% re-epithelialization) at 14 d post-burn: 17 (3) percent
Porcine burns; administered 2 to 6 hours after wounding versus one hour or 8 to 12 hours after wounding
  effectiveness of i.v. treatment by time of administration after wounding: more effective
[1]
  anaphylactoid response: avoid any anaphylacoid response

## P12: 14-residue fibronectin fragment PSHISKYILRWRPK, cryptic within fibronectin's first type III repeat (FNIII1) (a 14-residue peptide that is cryptic within the immunoglobulin sandwich type of beta-pleated sheet of fibronectin′s first type III repeat)
Burn injury [2]; porcine burn model
  burn injury progression: limits burn injury progression
Burn injury [2]; vertical burn injury progression pig model
  scarring: mitigates scarring
Mesenchymal cell
  mesenchymal cell growth, proliferation and migration: promotes mesenchymal cell growth, proliferation and migration
Burn injury [3]
  burn injury progression: limits burn injury progression
[4]
  protection from cell death: protects
